Literature values as cited in patent publication US6500801B1, “Treatment for Dutch elm disease” (The Governing Council of the University of Toronto, priority 1997, dated 2002).

Tested on: strains of O. ulmi

| Compound | inhibition of growth of strains of O. ulmi |
| --- | --- |
| CC1=C2OCC(C)c3ccc(C)c(c32)C(=O)C1=O (stereo not drawn) [mansonone E] | inhibit the growth |
| CC1=Cc2c(C(C)C)ccc(C)c2C(=O)C1=O [mansonone C] | inhibit the growth |
| CC1=CC2=C(C(=O)C1=O)C(C)CCC2C(C)C (stereo not drawn) [mansonone A] | inhibit the growth |
| CC1=Cc2c(c(C)cc(O)c2C(C)C)C(=O)C1=O [mansonone G] | inhibit the growth |
| CC1=COC2=C(C)C(=O)C(=O)c3c(C)ccc1c32 [mansonone F] | inhibit the growth |
| CC1=Cc2c(c(C)cc3c2C(C)CO3)C(=O)C1=O (stereo not drawn) [mansonone D] | inhibit the growth |
